Each cell line was assayed with COc1cc(-c2nn([C@H]3CC[C@H](N4CCN(C(C)=O)CC4)CC3)c3ncnc(N)c23)ccc1NC(=O)c1cc2ccccc2n1C + CCNC(=O)c1noc(-c2cc(C(C)C)c(O)cc2O)c1-c1ccc(CN2CCOCC2)cc1 [Luminespib] (partner 0.01 µM) (assay: relative viability (nuclei count vs DMSO), 5 days (fraction); higher = more cells survive). Conditions: first compound 0.04048 µM.
Summary of the method: (§1)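 Nuclei were stained with Hoechst during a one-step fixation (final 0.05% Triton X-100, 1% formaldehyde, 1 ug/ml Hoechst) carried out 5 days after dosing, then counted on 4× images. The cells, lung cancer lines in 1536-well plates, had been dosed by pin tool the day after seeding with one drug alone or a fixed anchor-drug dose plus five library-drug doses (not always all listed) in √10 steps. Relative viability is the nuclei count in treated wells divided by that in vehicle wells, and each value is the median of duplicate plates.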

In order of rising relative viability:
1. SW 900  0.175
2. NCI-H522  1.21

Same assay, conditions: first compound 0.128 µM

In order of rising relative viability:
1. NCI-H520  0.174
2. SW 900  0.184
3. NCI-H1650  0.19
4. SW 1573  0.231
5. NCI-H838  0.243
6. NCI-H727  0.343
7. NCI-H1623  0.451
8. NCI-H1993  0.589
9. ChaGo-K-1  0.616
10. NCI-H2170  0.669
11. NCI-H2342  0.87
12. LCLC-103H  0.879
13. NCI-H522  1.3

Same assay, conditions: first compound 1.28 µM

In order of falling relative viability:
1. NCI-H522  0.971
2. LCLC-103H  0.835
3. NCI-H1993  0.767
4. ChaGo-K-1  0.679
5. NCI-H2342  0.61
6. NCI-H1623  0.433
7. SW 1573  0.42
8. NCI-H2170  0.373
9. NCI-H838  0.261
10. NCI-H520  0.243
11. NCI-H727  0.236
12. NCI-H1650  0.181
13. SW 900  0.159

These cell lines were tested with COc1cc(-c2nn([C@H]3CC[C@H](N4CCN(C(C)=O)CC4)CC3)c3ncnc(N)c23)ccc1NC(=O)c1cc2ccccc2n1C + C[C@]1(O)C[C@@H](c2nc(-c3ccc4ccc(-c5ccccc5)nc4c3)c3c(N)nccn32)C1 [Linsitinib] (partner 1 µM) in the same assay as above. Conditions: first compound 0.0128 µM.
Summary of the method: as §1

In order of rising relative viability:
1. NCI-H727  0.401
2. HCC-366  0.531
3. A549  0.552
4. HCC-78  0.573
5. IA-LM  0.606
6. SW 1573  0.706
7. NCI-H520  0.715
8. EBC-1  0.77
9. Calu-6  0.901
10. NCI-H1993  0.91
11. NCI-H838  0.974
12. NCI-H1703  0.984
13. NCI-H1299  1.01
14. LCLC-103H  1.12

Same assay, conditions: first compound 0.04048 µM

In order of rising relative viability:
1. NCI-H1703  0.193
2. IA-LM  0.299
3. HCC-366  0.513
4. HCC-78  0.643
5. Calu-6  0.657
6. A549  0.666
7. NCI-H1993  0.691
8. SW 1573  0.72
9. NCI-H520  0.795
10. NCI-H1299  0.871
11. EBC-1  0.959
12. NCI-H838  1.1
13. LCLC-103H  1.21

Same assay, conditions: first compound 0.128 µM

In order of falling relative viability:
1. NCI-H838  1.06
2. NCI-H1299  0.999
3. LCLC-103H  0.957
4. NCI-H520  0.9
5. EBC-1  0.898
6. Calu-6  0.858
7. NCI-H1993  0.698
8. IA-LM  0.698
9. NCI-H1703  0.637
10. SW 1573  0.63
11. A549  0.619
12. HCC-366  0.531
13. HCC-78  0.513
14. NCI-H727  0.162

Same assay, conditions: first compound 1.28 µM

In order of falling relative viability:
1. LCLC-103H  1.01
2. EBC-1  0.896
3. IA-LM  0.815
4. Calu-6  0.785
5. NCI-H520  0.683
6. NCI-H838  0.657
7. NCI-H1299  0.655
8. NCI-H1993  0.611
9. SW 1573  0.598
10. A549  0.465
11. HCC-78  0.436
12. NCI-H727  0.33
13. NCI-H1703  0.323
14. HCC-366  0.257

Each cell line was assayed with CO[C@@H]1[C@H](N(C)C(=O)c2ccccc2)C[C@H]2O[C@]1(C)n1c3ccccc3c3c4c(c5c6ccccc6n2c5c31)C(=O)NC4 [Midostaurin] + Cc1nc(NC(=O)N2CCC[C@H]2C(N)=O)sc1-c1ccnc(C(C)(C)C(F)(F)F)c1 [Alpelisib] (partner 2 µM) in the same assay as above. Conditions: first compound 0.01 µM.
Summary of the method: as §1

In order of falling relative viability:
1. NCI-H1299  1.03
2. NCI-H838  1.02
3. Calu-6  0.944
4. LCLC-103H  0.932
5. NCI-H520  0.891
6. EBC-1  0.871
7. IA-LM  0.853
8. NCI-H2170  0.828
9. A549  0.742
10. SW 1573  0.73
11. NCI-H1993  0.714
12. NCI-H727  0.526
13. HCC-78  0.413
14. NCI-H1703  0.343
15. HCC-366  0.331

Same assay, conditions: first compound 0.03162 µM

In order of rising relative viability:
1. HCC-366  0.297
2. HCC-78  0.305
3. NCI-H1703  0.369
4. NCI-H727  0.471
5. NCI-H1993  0.657
6. A549  0.705
7. SW 1573  0.721
8. EBC-1  0.735
9. NCI-H838  0.772
10. NCI-H2170  0.856
11. NCI-H520  0.882
12. Calu-6  0.913
13. LCLC-103H  0.979
14. NCI-H1299  1.05

Same assay, conditions: first compound 0.1 µM

In order of rising relative viability:
1. NCI-H1703  0.27
2. HCC-366  0.318
3. HCC-78  0.358
4. NCI-H727  0.538
5. NCI-H1993  0.675
6. A549  0.679
7. NCI-H2170  0.722
8. EBC-1  0.746
9. SW 1573  0.805
10. IA-LM  0.821
11. NCI-H520  0.845
12. NCI-H838  0.865
13. Calu-6  0.914
14. LCLC-103H  1.04
15. NCI-H1299  1.04

Same assay, conditions: first compound 0.3162 µM

In order of falling relative viability:
1. LCLC-103H  1.06
2. NCI-H1299  1.03
3. NCI-H520  0.981
4. IA-LM  0.891
5. Calu-6  0.766
6. NCI-H2170  0.707
7. NCI-H1993  0.643
8. SW 1573  0.618
9. EBC-1  0.605
10. NCI-H838  0.407
11. HCC-366  0.323
12. NCI-H727  0.296
13. HCC-78  0.296
14. A549  0.265
15. NCI-H1703  0.209
